Source: patent publication US20070128217A1 (priority 2003, published 2007)

Experiments:
[1] = tested on: rabbit serum obtained by immunizing a rabbit with the SARS-CoV strain Frankfurt 1; format: binding; set-up: Binding of a rabbit serum to linear peptides / Binding of a rabbit serum to looped peptides / Rabbit serum linear peptides / Rabbit serum looped peptides / Binding of a rabbit serum to linear peptides of protein N of SARS-CoV Urbani (Rabbit serum linear peptides) / Binding of a rabbit serum to looped/cyclic peptides of protein N of SARS-CoV Urbani (Rabbit serum looped peptides): unit not given here
[2] = tested on: antibodies in sera from SARS patients (sera 1a, 1b, 2, 6, 37, 62, London, SARS-yellow, SARS-green); format: binding, human; set-up: Binding of serum 6 to linear peptides of protein X1 of SARS-CoV Urbani / Binding of serum 37 to linear peptides of protein X1 of SARS-CoV Urbani / Binding of serum 6 to looped/cyclic peptide (PEPSCAN-ELISA) / Binding of serum 37 to looped/cyclic peptide (PEPSCAN-ELISA) / Binding of serum 37 to looped/cyclic peptides of protein X1 of SARS-CoV Urbani / Binding of serum 6 to linear peptides of protein X2 / Binding of serum 37 to linear peptides of protein X2 / Binding of serum 37 to looped/cyclic peptides of protein X2 of SARS-CoV Urbani / Binding of serum 6 to linear peptides of protein M of SARS-CoV Urbani / Binding of serum 37 to linear peptides of protein M of SARS-CoV Urbani / Binding of serum 6 to looped/cyclic peptides of protein M of SARS-CoV Urbani / Binding of serum 37 to looped/cyclic peptides of protein M of SARS-CoV Urbani / Binding of serum 6 to linear peptides of protein X3 of SARS-CoV Urbani / Binding of serum 37 to linear peptides of protein X3 of SARS-CoV Urbani / Binding of serum 37 to looped/cyclic peptides of protein X3 of SARS-CoV Urbani / Binding of serum 6 to linear peptides of protein X4 of SARS-CoV Urbani / Binding of serum 37 to linear peptides of protein X4 of SARS-CoV Urbani / Binding of serum 37 to looped/cyclic peptides of protein X4 of SARS-CoV Urbani / Binding of serum 6 to linear peptides of protein X5 of SARS-CoV Urbani / Binding of serum 37 to linear peptides of protein X5 of SARS-CoV Urbani / Binding of serum 37 to looped/cyclic peptides of protein X5 of SARS-CoV Urbani / Binding of serum 6 to linear peptides of protein N of SARS-CoV Urbani / Binding of serum 37 to linear peptides of protein N of SARS-CoV Urbani / Binding of serum 6 to linear peptide (PEPSCAN-ELISA) / Binding of serum 1a to looped/cyclic peptides of protein N of SARS-CoV Urbani / Binding of serum 1b to looped/cyclic peptides of protein N of SARS-CoV Urbani / Binding of serum 2 to looped/cyclic peptides of protein N of SARS-CoV Urbani / Binding of serum 6 to looped/cyclic peptides of protein N of SARS-CoV Urbani / Binding of serum 37 to looped/cyclic peptides of protein N of SARS-CoV Urbani / Binding of serum 62 to looped/cyclic peptides of protein N of SARS-CoV Urbani / Binding of serum London to looped/cyclic peptides of protein N of SARS-CoV Urbani / Binding of serum SARS-green to looped/cyclic peptides of protein N of SARS-CoV Urbani: unit not given here
[3] = tested on: control sera (pooled serum of ten healthy LUMC hospital workers; commercial negative donor pooled serum from the Dutch bloodbank); format: binding, human; set-up: Binding of Control serum LUMC to linear peptides / Binding of Control serum Blood-bank to linear peptides / Binding of Control serum LUMC to looped peptides / Binding of Control Serum Blood-Bank to Looped peptides / Binding of Control serum LUMC to linear peptides of the protein M of SARS-CoV Urbani / Binding of Control serum Blood-bank to linear peptides of the protein M of SARS-CoV Urbani / Binding of Control serum LUMC to looped peptides of the protein M of SARS-CoV Urbani / Binding of Control Serum Blood-Bank to Looped peptides of the protein M of SARS-CoV Urbani: unit not given here

## KILVRYNTRGNTYST
[1]
  Rabbit serum linear peptides: 0.7
  Rabbit serum looped peptides: 0.4
[2]
  Binding of serum 1a to linear peptides of protein X5 of SARS-CoV Urbani: 0.7
  Binding of serum 1a to looped/cyclic peptides of protein X5 of SARS-CoV Urbani: 0.5
  Binding of serum 1b to linear peptides of protein X5 of SARS-CoV Urbani: 0.5
  Binding of serum 1b to looped/cyclic peptides of protein X5 of SARS-CoV Urbani: 0.3
  Binding of serum 2 to linear peptides of protein X5 of SARS-CoV Urbani: 0.7
  Binding of serum 2 to looped/cyclic peptides of protein X5 of SARS-CoV Urbani: 0.5
  Binding of serum 6 to linear peptides of protein X5 of SARS-CoV Urbani: 0.7
  Binding of serum 6 to looped/cyclic peptides of protein X5 of SARS-CoV Urbani: 0.5
  Binding of serum 37 to linear peptides of protein X5 of SARS-CoV Urbani: 0.7
  Binding of serum 37 to looped/cyclic peptides of protein X5 of SARS-CoV Urbani: 0.5
  Binding of serum 62 to linear peptides of protein X5 of SARS-CoV Urbani: 0.8
  Binding of serum 62 to looped/cyclic peptides of protein X5 of SARS-CoV Urbani: 0.7
  Binding of serum London to linear peptides of protein X5 of SARS-CoV Urbani: 0.7
  Binding of serum London to looped/cyclic peptides of protein X5 of SARS-CoV Urbani: 0.3
  Binding of serum SARS-green to linear peptides of protein X5 of SARS-CoV Urbani: 0.5
  Binding of serum SARS-green to looped/cyclic peptides of protein X5 of SARS-CoV Urbani: 0.3
  Binding of serum SARS-yellow to linear peptides of protein X5 of SARS-CoV Urbani: 0.1
  Binding of serum SARS-yellow to looped/cyclic peptides of protein X5 of SARS-CoV Urbani: 0.6
[3]
  Binding of Control Serum Blood-Bank to Looped peptides: 0.5
  Binding of Control serum Blood-bank to linear peptides: 0.8
  Binding of Control serum LUMC to linear peptides: 0.6
  Binding of Control serum LUMC to looped peptides: 0.6

## WIMLLQFAYSNRNRF
[1]
  Rabbit serum linear peptides: 0.8
  Rabbit serum looped peptides: 0.3
[2]
  Binding of serum 1a to linear peptides of protein M of SARS-CoV Urbani: 0.6
  Binding of serum 1a to looped/cyclic peptides of protein M of SARS-CoV Urbani: 0.7
  Binding of serum 1b to linear peptides of protein M of SARS-CoV Urbani: 0.5
  Binding of serum 1b to looped/cyclic peptides of protein M of SARS-CoV Urbani: 0.6
  Binding of serum 2 to linear peptides of protein M of SARS-CoV Urbani: 0.5
  Binding of serum 2 to looped/cyclic peptides of protein M of SARS-CoV Urbani: 0.4
  Binding of serum 6 to linear peptides of protein M of SARS-CoV Urbani: 0.3
  Binding of serum 6 to looped/cyclic peptides of protein M of SARS-CoV Urbani: 0.8
  Binding of serum 37 to linear peptides of protein M of SARS-CoV Urbani: 0.7
  Binding of serum 37 to looped/cyclic peptides of protein M of SARS-CoV Urbani: 0.4
  Binding of serum 62 to linear peptides of protein M of SARS-CoV Urbani: 0.7
  Binding of serum 62 to looped/cyclic peptides of protein M of SARS-CoV Urbani: 0.6
  Binding of serum London to linear peptides of protein M of SARS-CoV Urbani: 0.3
  Binding of serum London to looped/cyclic peptides of protein M of SARS-CoV Urbani: 0.2
  Binding of serum SARS-green to linear peptides of protein M of SARS-CoV Urbani: 0.3
  Binding of serum SARS-green to looped/cyclic peptides of protein M of SARS-CoV Urbani: 0.2
  Binding of serum SARS-yellow to linear peptides of protein M of SARS-CoV Urbani: 0.1
  Binding of serum SARS-yellow to looped/cyclic peptides of protein M of SARS-CoV Urbani: 0.3
[3]
  Binding of Control Serum Blood-Bank to Looped peptides of the protein M of SARS-CoV Urbani: 0.7
  Binding of Control serum Blood-bank to linear peptides of the protein M of SARS-CoV Urbani: 0.7
  Binding of Control serum LUMC to linear peptides of the protein M of SARS-CoV Urbani: 0.3
  Binding of Control serum LUMC to looped peptides of the protein M of SARS-CoV Urbani: 0.7

## IIMRCWLCWKCKSKN
[1]
  Binding of a rabbit serum to linear peptides: 0.2
  Binding of a rabbit serum to looped peptides: 0.7
[2]
  Binding of serum 1a to looped/cyclic peptide (PEPSCAN-ELISA): 0.5
  Binding of serum 1b to looped/cyclic peptide (PEPSCAN-ELISA): 0.3
  Binding of serum 2 to looped/cyclic peptide (PEPSCAN-ELISA): 0.3
  Binding of serum 6 to looped/cyclic peptide (PEPSCAN-ELISA): 0.5
  Binding of serum 37 to looped/cyclic peptide (PEPSCAN-ELISA): 0.4
  Binding of serum 62 to looped/cyclic peptide (PEPSCAN-ELISA): 0.5
  Binding of serum London to looped/cyclic peptide (PEPSCAN-ELISA): 0.2
  Binding of serum SARS-green to looped/cyclic peptide (PEPSCAN-ELISA): 0.2
  Binding of serum SARS-yellow to looped/cyclic peptide (PEPSCAN-ELISA): 0.3
  Recognition of the peptide by sera of SARS-CoV infected individuals, and form (linear, looped/cyclic) in which it is recognized: recognized in linear form
[3]
  Binding of Control Serum Blood-Bank to Looped peptides: 0.6
  Binding of Control serum Blood-bank to linear peptides: 0.5
  Binding of Control serum LUMC to linear peptides: 0.4
  Binding of Control serum LUMC to looped peptides: 0.6
